In one assay the target is hMOR (Homo sapiens, UniProt P35372). Description: hMOR radioligand binding, competition with [3H]-DAMGO, HEK293 membranes. The following applies: for improved MOR affinity with respect to 2-THP unsubstituted analog: 122 vs 115, 121 vs 112.
Assay [1] concerns the target T1, mMOR (Mus musculus, UniProt P42866). As to the kind of experiment: BRET Nb33 recruitment at MOR, HEK 293T cells. The following applies: read-out: MOR Nb33 recruitment Emax ± SEM. In kind it is cell-based.
In assay [2] the target is T1, mMOR. Description: BRET arrestin-3 recruitment at MOR with overexpressed GRK2, HEK 293T cells. The following applies: NA = No Activity at the highest tested concentration. The format is cell-based.
The target in assay [3] is T2, hD3R (Homo sapiens, UniProt P35462). The format is binding. Particulars: from Ki values.
For assay [4], the target named is T1, mMOR. Description: BRET MOR-mediated Gαi2 G protein activation. In kind it is cell-based. Particulars: NA = No Activity at the highest tested concentration.
Assay [5] concerns the target T2, hD3R. Description: BRET D3R-mediated GαoA G protein activation. The format is cell-based. The following applies: agonist mode; NA = No Activity at the highest tested concentration.

SMILES strings stand for the structures. Bounds are passed on as bounds.

hMOR, sequence (P35372 whole entry): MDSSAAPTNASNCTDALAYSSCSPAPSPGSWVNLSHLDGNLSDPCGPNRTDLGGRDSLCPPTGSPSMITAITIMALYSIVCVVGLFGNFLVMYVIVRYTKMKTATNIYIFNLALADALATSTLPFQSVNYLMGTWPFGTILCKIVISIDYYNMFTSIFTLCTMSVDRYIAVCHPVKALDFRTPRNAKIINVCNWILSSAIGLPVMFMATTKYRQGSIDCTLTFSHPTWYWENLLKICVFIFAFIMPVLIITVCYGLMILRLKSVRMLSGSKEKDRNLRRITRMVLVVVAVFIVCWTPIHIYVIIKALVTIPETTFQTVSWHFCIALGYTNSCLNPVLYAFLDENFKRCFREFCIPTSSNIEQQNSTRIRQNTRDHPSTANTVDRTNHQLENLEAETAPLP
T1 sequence (P42866 whole entry): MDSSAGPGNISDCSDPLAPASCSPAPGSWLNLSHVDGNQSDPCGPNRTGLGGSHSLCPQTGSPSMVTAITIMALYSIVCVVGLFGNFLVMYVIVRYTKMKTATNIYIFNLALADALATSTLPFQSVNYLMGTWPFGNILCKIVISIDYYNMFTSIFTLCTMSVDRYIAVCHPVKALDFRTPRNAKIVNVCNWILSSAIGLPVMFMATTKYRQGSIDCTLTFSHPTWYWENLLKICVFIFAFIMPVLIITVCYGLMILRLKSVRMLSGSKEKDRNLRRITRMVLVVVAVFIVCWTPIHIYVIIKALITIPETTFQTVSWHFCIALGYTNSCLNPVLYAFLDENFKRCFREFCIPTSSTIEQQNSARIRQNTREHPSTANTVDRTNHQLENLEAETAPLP
T2 sequence (P35462 whole entry): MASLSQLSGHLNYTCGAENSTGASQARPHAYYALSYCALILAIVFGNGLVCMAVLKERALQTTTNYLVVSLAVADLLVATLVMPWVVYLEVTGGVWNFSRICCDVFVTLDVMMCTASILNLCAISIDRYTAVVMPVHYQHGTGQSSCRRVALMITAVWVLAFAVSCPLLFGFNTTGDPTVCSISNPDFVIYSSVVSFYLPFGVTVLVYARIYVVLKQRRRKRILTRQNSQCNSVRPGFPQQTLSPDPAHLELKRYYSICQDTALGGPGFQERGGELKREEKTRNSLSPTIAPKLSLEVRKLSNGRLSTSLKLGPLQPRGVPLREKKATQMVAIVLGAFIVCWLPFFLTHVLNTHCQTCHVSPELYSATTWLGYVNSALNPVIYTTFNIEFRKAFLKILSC

On to `CN(C)C(=O)C(CCN1C[C@H](O)CC1=CN1CCN(c2cccc(Cl)c2Cl)CC1)(c1ccccc1)c1ccccc1` (mixture of isomers) [compound 26, (R)-4-(2-((4-(2,3-Dichlorophenyl)piperazin-1-yl)methylene)-4-hydroxypyrrolidin-1-yl)-N,N-dimethyl-2,2-diphenylbutanamide], for which, on hMOR, the affinity corresponds to a Ki of 0.0238 µM. This lies in the double-digit nanomolar range. For `CCCN(CCC(C(=O)N(C)C)(c1ccccc1)c1ccccc1)[C@@H]1C[C@H]1c1ccc(Cl)cc1` (relative stereo) [compound 80, rel-trans-4-((2-(4-Chlorophenyl)cyclopropyl)(propyl)amino)-N,N-dimethyl-2,2-diphenylbutanamide], the Emax at mMOR [1] worked out at 27.7 ± 4.9%. `Clc1ccc([C@@H]2C[C@H]2NCCC2(c3ccccn3)CCOC3(CCCC3)C2)cc1` (relative stereo) [compound 121, rel-trans-2-(4-Chlorophenyl)-N-(2-(9-(pyridin-2-yl)-6-oxaspiro[4.5]decan-9-yl)ethyl)cyclopropan-1-amine]: the “improved MOR affinity with respect to 2-THP unsubstituted analog” value at hMOR was over 10 fold. In addition, the “MOR arr3 recruitment (+ GRK2) pEC50 ± SEM” value at mMOR [2] is listed as 6.58 ± 0.08. Besides, the “D3R selectivity over D2R” value on hD3R [3] was 15 fold. With `COc1ccccc1[C@@H]1C[C@H]1NCCC(C(=O)N(C)C)(c1ccccc1)c1ccccc1` (relative stereo) [compound 84, rel-trans-4-((2-(2-Methoxyphenyl)cyclopropyl)amino)-N,N-dimethyl-2,2-diphenylbutanamide], the maximum response (Emax) at mMOR [1] was found to be 31 ± 2.3%. In the case of `FC(F)(F)c1cccc(N2CCN(CCC3(c4ccccn4)CCOC4(CCCC4)C3)CC2)n1` (stereo not drawn) [compound 122, 1-(2-(9-(Pyridin-2-yl)-6-oxaspiro[4.5]decan-9-yl)ethyl)-4-(6-(trifluoromethyl)pyridin-2-yl)piperazine], the “improved MOR affinity with respect to 2-THP unsubstituted analog” value on hMOR was over 10 fold. Consider `CN(C)C(=O)C(CCN1C[C@H](F)C[C@H]1C(=O)NCCCCN1CCN(c2cccc(C(F)(F)F)n2)CC1)(c1ccccc1)c1ccccc1` [compound 56, (2S,4R)-1-(4-(Dimethylamino)-4-oxo-3,3-diphenylbutyl)-4-fluoro-N-(4-(4-(6-(trifluoromethyl)pyridin-2-yl)piperazin-1-yl)butyl)pyrrolidine-2-carboxamide], for which the “MOR Gi2 activation pEC50 ± SEM” value at mMOR [4] is 5.94 ± 0.08. Turning to `CCc1cc(Cl)c(OC)c(N2CCN(C[C@@H]3C[C@@H](O)CN3CCC(C(=O)N(C)C)(c3ccccc3)c3ccccc3)CC2)c1` [compound 34, 4-((2S,4R)-2-((4-(3-Chloro-5-ethyl-2-methoxyphenyl)piperazin-1-yl)methyl)-4-hydroxypyrrolidin-1-yl)-N,N-dimethyl-2,2-diphenylbutanamide], the “D3R GoA activation pEC50 ± SEM” value on hD3R [5] was 7.60 ± 0.99.
